Results published in patent publication EP4671365A1, “KIT FOR INDUCING STEM CELLS TO DIFFERENTIATE INTO NK CELLS, USE OF KIT, AND USE OF COMBINATION OF NK CELLS AND TMZ IN TREATMENT FOR TMZ DRUG-RESISTANT GBM” (Xellsmart Biomedical (Suzhou) Co., Ltd, priority 2023, dated 2024).

Key:
[1] = system: resistant GBM (T98G); test: Cell cycle assay (PI staining, flow cytometry); assay type: cell-based; conditions: TMZ 300 µM, compared to control DMSO
Method: (§1) TMZ acts on DNA after being absorbed into tumor cells in the human body, causing alkylation damage to the DNAs, thereby forming DNA double-strand breaks or cross-linking, arresting the cell cycle, and triggering the proliferation arrest or apoptosis of the tumor cells. To explore the mechanism by which the resistant GBM cell strains resist TMZ, a cell cycle assay was performed to determine the effect of TMZ on the cell cycle of different GBM cell strains. A. Cell culture and treatment: See Example 5 for the procedures of U87 and T98G cell culture and TMZ treatment. The concentration of TMZ used in this example was 300 µM. B. Preparation of cell samples: The Beyotime cell cycle kit (Beyotime, C1052) was used according to the manufacturer's instructions. 1 × 10^6 cells were added to a centrifuge tube for later use and centrifuged at 1000 g for 3-5 min to precipitate the cells. The supernatant was discarded by pipetting, and 1 mL of pre-cooled PBS was added to resuspend the cells. The mixture was transferred to a 1.5 mL centrifuge tube. The cells were pelleted by centrifugation, and the supernatant was discarded by pipetting. C. Cell fixation: The cells were added to 1 mL of pre-cooled 70% ethanol, mixed well by pipetting, and fixed at 4 °C for 30 min. The mixture was centrifuged at about 1000 g for 3-5 min to pellet the cells. The supernatant was discarded by pipetting, and about 1 mL of PBS pre-cooled in an ice bath was added to resuspend the cells. The cells were pelleted again by centrifugation, and the supernatant was discarded by pipetting. D. Preparation of and staining with propidium iodide (PI) staining solution: Referring to Table 2, an appropriate amount of PI staining solution was prepared according to the number of samples to be tested. Table 2. Preparation of PI staining solutions
(§2) Staining: 0.5 mL of the PI staining solution was added to each tube of cell samples, and the cell pellet was slowly and fully resuspended and incubated in the dark at 37 °C for 30 min. The mixture was preserved at 4 °C or in an ice bath in the dark. The flow cytometry was completed within 24 h after the staining was completed.
(§3) E. Flow cytometry detection and analysis: The red fluorescence was detected at an excitation wavelength of 488 nm and the light scattering was also detected on a flow cytometer (Agilent, Novocyte3000). The cellular DNA content assay and light scattering analysis were performed using an appropriate analysis software (Agilent, Novoexpress).

[2] = system: sensitive GBM (U87); test: Cell cycle assay (PI staining, flow cytometry); assay type: cell-based; conditions: TMZ 300 µM
Method: as §1, §2, §3

[3] = system: TMZ-resistant GBM (T98G); test: CellTiter-Glo cell viability assay, sensitivity response to TMZ; assay type: cell-based
Method: (§4) U87 and T98G cells were cultured until an 80%-90% confluence and digested with pancreatin (Beyotime, C0201-100mL) at 37 °C for 5 min. DMEM medium (Gibco, 11965084) of a two-fold volume was added to stop the digestion. The cell suspension was transferred to a centrifuge tube and centrifuged at 300 g for 5 min. The cell pellet was resuspended in DMEM medium, and the cells were counted by AO (acridine orange)/PI (propidium iodide) staining. According to the counting result, the density of the cell suspension was adjusted to 1 × 10^5 cells/mL. The cell suspension was added to the 96-well plate at 100 µL/well as required for grouping, and then the 96-well plate was incubated in an incubator at 37 °C overnight.
(§5) TMZ powder (Sigma, T2577-25MG) was dissolved in an appropriate volume of DMSO to prepare a TMZ stock solution at a concentration of 100 mM. The TMZ solution with the highest concentration (5000 µM) was prepared as follows: 225 µL of the TMZ stock solution was diluted with 4.5 mL of DMEM medium, and the resultant solution was then diluted to give TMZ working solutions at concentrations of 1000 µM, 500 µM, 200 µM, 100 µM, and 10 µM.
(§6) After the U87 and T98G cells were cultured overnight, and the adherent growth and the logarithmic growth phase were observed, the TMZ working solutions at the corresponding working concentration were added according to the grouping design at 100 µL/well, and the cells were incubated in the incubator. […]
(§7) The CellTiter-Glo® luminescent cell viability assay kit (Promega, G7572) was used, and the procedures in the manufacturer's instructions were performed. An appropriate volume of the CellTiter-Glo® solution was mixed with a DMEM medium in a ratio of 1:1 to prepare a working solution. The CellTiter-Glo® working solution was added to the 96-well plate at 50 µL/well. The plate was incubated at room temperature for 10 min in the dark and then detected on a microplate reader (TECAN, Infinite®200 PRO) for the chemiluminescence.
(§8) The assay and detection schemes were the same as those in Example 5.1, and a concentration of 300 µM in the sensitive interval in Example 5.1 was selected as the TMZ concentration.

[4] = system: TMZ-sensitive GBM (U87); test: as above; assay type: cell-based
Method: as §4, §5, §6, §7, §8

[5] = system: T98G; test: Flow cytometry of immune activation ligands after TMZ treatment; assay type: cell-based; conditions: TMZ 1000 µM, 48 h; CD112, CD155, B7-H6, CD54, CD70, CD48, CD1d, PD-L1
Description: Immune surveillance is an important mechanism for identifying and removing tumor cells, and the dynamic expression of proteins related to immune activation on the membrane of tumor cells is also the key to their recognition by immune cells or recognition escape. In this example, the changes in expression of immune-related proteins when GBM is resisting the effect of TMZ were further studied, so as to provide a theoretical basis for the immunotherapy. • A. GBM cell culture and treatment: See Example 5 for the procedures of T98G cell culture. The cells were cultured until an 80%-90% confluence and digested with pancreatin at 37 °C for 5 min. DMEM medium of a two-fold volume was added to stop the digestion. The cell suspension was transferred to a centrifuge tube and centrifuged at 300 g for 5 min. The cell pellet was resuspended in DMEM medium, and the cells were counted by AO/PI staining. According to the counting result, the density of the cell suspension was adjusted to 1 × 10^5 cells/mL. After that, an appropriate volume of TMZ stock solution (100 mM) was added to the cell suspension to reach a final TMZ concentration of 1000 µM in the cell suspension. […]
The cells treated with TMZ for 48 h were digested with a pancreatin digestion solution and centrifuged, and the supernatant was discarded. […] The cells were washed with PBS, centrifuged, resuspended, and detected on a flow cytometer. […]

[6] = system: resistant GBM (T98G); test: In vitro killing of tumor target cells (CellTiter-Glo); assay type: cell-based
Method: Furthermore, in this example, the in vitro efficacy of iPSC-NK cells in combination with TMZ was explored by monitoring the killing of tumor target cells. • A. The procedures for the culture, digestion, and plating of GBM tumor cells T98G are described in Example 5. • B. TMZ preparation: See Example 5 for the procedures of treating cells. In this example, the cells were pre-treated at 1000 µM for 48 h. • C. iPSC-NK cells were prepared as described in Example 8. • D. Co-incubation for killing. According to the preset effector-to-target ratios (1:8, 1:4, and 1:1), an appropriate volume of iNK cells in an expansion culture was taken (note that the iNK cell viability should be kept at 90% or higher) and counted by AO/PI staining. According to the counting result, the cell suspension was adjusted to a density of 1 × 10^5 cells/mL. The tumor cells were seeded at 1 × 10^4 cells/well. After the adherent culture of T98G cells in the 96-well plates (6 h after re-digestion and inoculation), the NK cell suspension was added to the T98G plates according to the grouping design. After 18 h of co-incubation, the viability of the T98G cells was detected using the CellTiter-Glo® luminescent cell viability assay kit. Three replicates were set in each group. • E. Cell viability assay. At preset time points (8, 16, 24, and 48 h), the cells were collected. The CellTiter-Glo® luminescent cell viability assay kit was used according to the manufacturer's instructions. An appropriate volume of the CellTiter-Glo® solution was mixed with a DMEM medium in a ratio of 1:1 to prepare a working solution. The CellTiter-Glo® working solution was added to the 96-well plate at 50 µL/well. The plate was incubated at room temperature for 10 min in the dark and then detected on a microplate reader for the chemiluminescence. • F. Killing rate calculation. Killing rate (%) = (fluorescence intensity in the untreated group - fluorescence intensity in the treatment group)/fluorescence intensity in the untreated group × 100%. * denotes p < 0.05 in a T test, and ** denotes p < 0.01. […]

[7] = in vivo, cited from earlier work
[8] = TMZ 300 µM, 48 h, compared to control DMSO

Structure (SMILES): Cn1nnc2c(C(N)=O)ncn2c1=O [TMZ, 3,4-dihydro-3-methyl-4-oxoimidazo[5,1-d]-asymmetric-tetrazol-8-amide]
- DNA in the G2/M phase [1]: did not change significantly
- DNA content in the G2/M phase ([2]; 24 h): 16.86%
- DNA content in the G2/M phase ([2]; 48 h): 23.22%
- DNA content in the G2/M phase ([2]; 72 h): 40.01%
- viability at 200 µM ([3]; Homo sapiens, T98G, TMZ 200 µM, 72 h, read-out: viable T98G cell count): ≥ 80%
- viability at 300 µM ([3]; Homo sapiens, T98G, TMZ 300 µM, at 72 h, read-out: viable cell count (T98G)): > 80%
- viability at 500 µM ([3]; Homo sapiens, T98G, TMZ 500 µM, 72 h, read-out: viable T98G cell count): 70%
- growth of T98G cells (microscopic results) [3, 8]: not greatly different
- viability at 200 µM ([4]; Homo sapiens, U-87 MG, TMZ 200 µM, 72 h, read-out: viable U87 cell count): ~50%
- viability at 300 µM ([4]; Homo sapiens, U-87 MG, TMZ 300 µM, at 72 h, read-out: viable U87 cell count): < 40%
- viability at 500 µM ([4]; Homo sapiens, U-87 MG, TMZ 500 µM, 72 h, read-out: viable U87 cell count): ~40%
- growth of U87 cells (microscopic results) [4, 8]: significantly inhibited
- expression of immune activation ligands [5]: up-regulated expression to different extents
- killing effect against target cells ([6]; 8 h, 16 h, 24 h and 48 h, effector-to-target ratios 1:8, 1:4, 1:1, TMZ 1000 µM pretreatment 48 h): weak killing effect
- killing effects / in vitro killing activity ([6]; E:T = 1:1, co-incubation 8 h): substantially no killing effects
- killing effect ([6]; at 48 h, TMZ 1000 µM): about 10%
- oral bioavailability ([7]; po): ~100%
- concentration detected in the cerebrospinal fluid, of the TMZ plasma concentration [7]: about 20%
